For assay [1], the system named is Toxoplasma gondii. The assay can be described thus: Inhibition of Toxoplasma gondii in human foreskin fibroblasts relative to DMSO. Type of assay: functional, organism-based.
Assay [2] relates to Toxoplasma gondii. The assay can be described thus: Inhibition of Toxoplasma gondii in human foreskin fibroblasts at 100 uM relative to DMSO. Type of assay: functional.
Assay [3] relates to Toxoplasma gondii. Put plainly: Decrease in acetylated histone H3 levels in Toxoplasma gondii tachyzoites after 3 days by immunoblotting. Type of assay: functional, organism-based.
The target in assay [4] is Histone acetyltransferase GCN5 (Saccharomyces cerevisiae S288c) (UniProt Q03330). Put plainly: Inhibition of Saccharomyces cerevisiae recombinant GCN5 assessed as histone H3 acetylation.
Assay [5] relates to Toxoplasma gondii. Put plainly: Effect on apicoplasts in Toxoplasma gondii at 200 uM by DAPI staining relative to DMSO. The class given is functional.

This is an account of results in ChEMBL document CHEMBL1142079, “Quinoline derivative MC1626, a putative GCN5 histone acetyltransferase (HAT) inhibitor, exhibits HAT-independent activity against Toxoplasma gondii” (2007).

For orientation: inhibition means the change of the read-out against control, counted positive when it falls. A low value points to little suppression.

Active and inactive are the calls of the source. No cut-off for these calls is given here.

Histone acetyltransferase GCN5 (Saccharomyces cerevisiae S288c), sequence (Q03330 whole entry): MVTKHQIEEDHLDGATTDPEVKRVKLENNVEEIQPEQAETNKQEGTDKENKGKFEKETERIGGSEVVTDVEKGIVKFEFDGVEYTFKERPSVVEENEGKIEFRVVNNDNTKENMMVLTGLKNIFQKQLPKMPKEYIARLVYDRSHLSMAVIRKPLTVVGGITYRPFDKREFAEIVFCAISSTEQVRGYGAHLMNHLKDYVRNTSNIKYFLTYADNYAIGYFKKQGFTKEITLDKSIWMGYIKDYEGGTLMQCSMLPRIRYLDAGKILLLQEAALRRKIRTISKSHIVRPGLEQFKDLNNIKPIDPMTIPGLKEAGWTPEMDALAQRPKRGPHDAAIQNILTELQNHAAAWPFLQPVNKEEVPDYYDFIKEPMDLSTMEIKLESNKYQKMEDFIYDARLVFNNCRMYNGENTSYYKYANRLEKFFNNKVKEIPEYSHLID

As to `CCOC(=O)c1cc2ccccc2nc1C`, the results for the Activity result in the assay on Toxoplasma gondii [1] and in the assay on Toxoplasma gondii [5] were “Dose-dependent effect” and 52%, respectively. The compound also came in with an inhibition at 100 µM with Toxoplasma gondii [2] of 50%. Further, the result (with Toxoplasma gondii [3]; in assay [4]) was inactive.

With `C=CC/C=C\C/C=C\CCCCCCCc1cccc(O)c1C(=O)O`, the outcome in assay [4] was Active.
